# From paper PMC8234462, “Novel Cyclophilin Inhibitor Decreases Cell Proliferation and Tumor Growth in Models of Hepatocellular Carcinoma” (Cancers, 2021)
# “Also recorded” adds a separate entry of the source. Read-outs that look alike come from different tables or passages of the source.
# What was measured:
# Cyp40 = Cyp40 (Homo sapiens, UniProt Q08752); assay: PPIase activity assay (chymotrypsin-coupled); assay type: biochemical; conditions: free-cell assay; Cyp equilibrated 1 h at 5 °C with inhibitor; read-out: absolute IC50, PPIase activity Cyp40
# Protocol: (§1) The PPIase activity of CypA, CypB, CypD and Cyp40 was determined by following the rate of hydrolysis of N-succinyl-Ala-Ala-Pro-Phe-p-nitroanilide by chymotrypsin, a digestive enzyme that only hydrolyzes the trans form of the peptide. Therefore, the hydrolysis of the cis form, the concentration of which is maximized by using a stock dissolved in trifluoroethanol containing 470-mM LiCl, is only possible with the isomerization from the cis to the trans form. […] The reaction was started with the peptide addition, and the change in absorbance was monitored spectrophotometrically at a 6-s interval for 6 min. The blank rates of hydrolysis (in the absence of Cyps) were subtracted from the rates in the presence of Cyps. The initial rates of the enzymatic reaction were analyzed by a first-order regression analysis of the time course of the change in absorbance.
# CypA = CypA (Homo sapiens, UniProt P62937); assay: PPIase activity assay (chymotrypsin-coupled); assay type: biochemical; conditions: free-cell assay; Cyp equilibrated 1 h at 5 °C with inhibitor; read-out: absolute IC50, PPIase activity CypA
# Protocol: as §1
# CypB = CypB (Homo sapiens, UniProt P23284); assay: PPIase activity assay (chymotrypsin-coupled); assay type: biochemical; conditions: free-cell assay; Cyp equilibrated 1 h at 5 °C with inhibitor; read-out: absolute IC50, PPIase activity CypB
# Protocol: as §1
# CypD = CypD (Homo sapiens, UniProt P30405); assay: PPIase activity assay (chymotrypsin-coupled); assay type: biochemical; conditions: free-cell assay; Cyp equilibrated 1 h at 5 °C with inhibitor; read-out: absolute IC50, PPIase activity CypD
# Protocol: as §1
# [1] = test system: primary human hepatocytes; assay: Cell health parameters by fluorescent imaging (ArrayScan); assay type: cell-based; conditions: for AC50: Hepatocyte
# Protocol: This experiment was performed in Cyprotex (Watertown, MA, USA). Cryopreserved Primary human hepatocytes plated on 384 black-well plate cells were dosed with NV651 at a range of concentrations (0.195, 0.391, 0.781, 1.56, 3.13, 6.25, 12.5, 25, 50 and 100 µM). At the end of the incubation period (24 or 48 h), several health parameters were analyzed to evaluate the potential cytotoxicity of NV651 in primary human hepatocytes, including the total cell count with Hoechst staining and PI subtraction (a nonpermeable dye to quantify dead cells), nuclear intensity, Glutathione content (GSH), mitochondrial membrane potential, reactive oxygen species (ROS), steatosis, nuclear size and DNA structure. Plates were then scanned using an automated fluorescent cellular imager, ArrayScan (Thermo Scientific Cellomics).
# [2] = In vivo toxicity, body weight; conditions: BALB/c nude mice; 25, 50 or 200 mg/kg daily IP for 5 days
# Protocol: All the procedures related to animal handling, care and the treatment in this study were performed according to the guidelines approved by the Institutional Animal Care and Use Committee (IACUC) of Shanghai ChemPartner Ltd. (Shanghai, China) following the guidance of the Association for Assessment and Accreditation of Laboratory Animal Care (AAALAC). BALB/c nude mice were kept in individual ventilation cages at a constant temperature and humidity, with 5 animals in each cage. Animals had free access to irradiation-sterilized dry granule food during the entire study period and water. BALB/c nude mice between 6–8 weeks were treated with either 25, 50 or 200 mg/kg dissolved in 25% buffered beta OH cyclodextrin (n = 5 mice per treatment). Daily doses were given intraperitoneally (IP) for 5 days. Mice were weighted daily until the 6th day.
# HEPG2 = assay: Phospho-Histone 3 (PH3) staining; assay type: cell-based, human; conditions: 10 or 100 nM, 24 h
# Protocol: (§2) For the quantification of mitotic cells, HEPG2 cells were seeded in a 6-well plate at a concentration of 1.5 × 10^5 cells/well and HUH7 at 1 × 10^5 cells/well in a 6-well plate. Both cells lines were treated with 10 or 100 nM of NV651 or the equivalent volume of DMSO. Samples were fixed for HEPG2 at 24 h and for HUH7 at 48 h of treatment, as described above. Permeabilization was performed by adding 0.25% Tween20 (Sigma-Aldrich, Cat# P1379-500ML, St. Louis, MO, USA) diluted in PBS. Samples were stained with primary antibody mouse anti-PH3 (Merck Millipore, Cat# 05-806, Burlington, MA, USA) at a dilution of 1/100 overnight at 4 °C and with the secondary antibody goat anti-Mouse IgG AF488 conjugated (Life technologies, Cat# A11029, Carlsbad, CA, USA) for 1 h at room temperature. After washing, 1-µg/mL DAPI was added for the staining of the DNA content.
# (§3) Data was acquired with FACSverse Instrument and analyzed with FCS Express 6 Flow Research.
# HUH7 = assay: Phospho-Histone 3 (PH3) staining; assay type: cell-based, human; conditions: 10 or 100 nM, 48 h
# Protocol: as §2, §3
# [3] = Stability of NV651 solution in 25% buffered HPbCD; assay type: physicochemical; conditions: stored at 4 °C
# Protocol: Twenty-five percent buffered Hydroxy Propyl beta Cyclodextrin (HPbCD) was prepared from Hydroxy Propyl beta Cyclodextrin (Roquette, Lestrem, France), EDTA solution and phosphate buffer at a pH of 7.4, filtered with a […] (VWR, Cat# 28145-483, Radnor, PA, USA) and stored at 4 °C. NV651 was prepared at a concentration of 10 mg/kg with 25% buffered HPbCD (vehicle). NV651 solution was sonicated for 30 min in a water bath sonicator (Bioruptor, Diagenode, Denville, NJ, USA) and shaken for up to an hour, followed by a secondary sterilization with a 0.2-µm filter. NV651 solution was stored at 4 °C up to 2 weeks, with stability confirmed up to 3 weeks.
# [4] = test system: human-derived normal cells; assay: Cytotoxicity panel of human-derived normal cells (overall); assay type: cell-based; conditions: overall statement
# Protocol: The evaluation of the off-target effects of NV651 was performed by ImQuest BioSciences Inc. (Frederick, MD, USA) by analyzing the cytotoxicity in a panel of primary cells. NV651 was evaluated at a concentration of 30 µM and five serial half-logarithmic dilutions in triplicate. The positive control compounds for each cell type were purchased from Sigma-Aldrich (St. Louis, MO, USA) and were as follows: […]
# Cyp40, sequence (Q08752 whole entry): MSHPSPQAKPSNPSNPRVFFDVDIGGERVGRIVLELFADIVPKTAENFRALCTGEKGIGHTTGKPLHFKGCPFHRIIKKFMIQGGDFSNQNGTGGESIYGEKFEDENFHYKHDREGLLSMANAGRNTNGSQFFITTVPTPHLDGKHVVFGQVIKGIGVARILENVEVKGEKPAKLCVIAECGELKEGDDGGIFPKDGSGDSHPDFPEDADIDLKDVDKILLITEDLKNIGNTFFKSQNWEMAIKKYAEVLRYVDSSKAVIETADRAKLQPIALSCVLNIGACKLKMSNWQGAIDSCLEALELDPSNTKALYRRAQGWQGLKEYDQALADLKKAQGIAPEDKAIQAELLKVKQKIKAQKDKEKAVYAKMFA
# CypD, sequence (P30405 30-207): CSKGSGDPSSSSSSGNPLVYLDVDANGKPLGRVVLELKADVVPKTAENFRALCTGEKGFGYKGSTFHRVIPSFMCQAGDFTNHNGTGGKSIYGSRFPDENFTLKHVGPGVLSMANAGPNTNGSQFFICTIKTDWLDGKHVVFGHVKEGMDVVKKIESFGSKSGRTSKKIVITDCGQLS
# CypB, sequence (P23284 34-216): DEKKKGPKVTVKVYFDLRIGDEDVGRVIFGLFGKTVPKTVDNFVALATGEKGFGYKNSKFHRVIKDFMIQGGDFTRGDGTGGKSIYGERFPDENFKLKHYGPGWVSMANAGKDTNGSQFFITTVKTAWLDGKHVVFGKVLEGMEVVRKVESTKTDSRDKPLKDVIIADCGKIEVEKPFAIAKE
# CypA, sequence (P62937 whole entry): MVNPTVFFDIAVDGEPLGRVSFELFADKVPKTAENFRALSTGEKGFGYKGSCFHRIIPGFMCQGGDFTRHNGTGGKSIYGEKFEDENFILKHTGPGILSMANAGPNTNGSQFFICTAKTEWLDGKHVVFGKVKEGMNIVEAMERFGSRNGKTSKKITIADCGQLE
smiles,measurement,setting,value
CC(=O)CCC1C(=O)NC(C(C)C)C(=O)NC(Cc2cc(O)cc(F)c2)C(=O)N2CCCC(N2)C(=O)OC(C(C)=CC=CC(=O)OC(C)(C)C)CC=CC=CC(O)C(C)C1O (stereo not shown) [NV651],IC50,Cyp40,0.000821 µM
same,IC50,CypA,0.00049 µM
same,IC50,CypB,0.000824 µM
same,IC50,CypD,0.000842 µM
same,"MEC, Glutathione content",[1]; 24 h,2.62 µM
same,"MEC, Mitochondrial Membrane potential",[1]; 24 h,12.40 µM
same,"MEC, Nuclear intensity",[1]; 24 h,8.90 µM
same,"MEC, ROS",[1]; 24 h,6.43 µM
same,"MEC, Cell count (PI corrected)",[1]; 48 h,6.14 µM
same,"MEC, DNA structure",[1]; 48 h,10.90 µM
same,"MEC, Nuclear size",[1]; 48 h,18.10 µM
same,"MEC, Steatosis",[1]; 48 h,6.81 µM
same,AC50,"[1]; 24 h, read-out: AC50, Glutathione content",10.9 µM
same,AC50,"[1]; 24 h, read-out: AC50, Mitochondrial Membrane potential",14.2 µM
same,AC50,"[1]; 24 h, read-out: AC50, Nuclear intensity",8.94 µM
same,AC50,"[1]; 24 h, read-out: AC50, ROS",8.17 µM
same,AC50,"[1]; 48 h, read-out: AC50, Cell count (PI corrected)",13.9 µM
same,AC50,"[1]; 48 h, read-out: AC50, DNA structure",34.4 µM
same,AC50,"[1]; 48 h, read-out: AC50, Nuclear size",21.5 µM
same,AC50,"[1]; 48 h, read-out: AC50, Steatosis",39 µM
same,body weight change,[2],no significant weight loss or other clinical signs; also recorded: no body weight losses
same,fraction of cells positive for the phosphorylation of histone 3 (PH3),HEPG2,increased
same,fraction of cells positive for the phosphorylation of histone 3 (PH3),HUH7,increased
same,stability of NV651 solution,[3],up to 3 weeks
same,IC50,[4],> 20 µM
